The source of these data is ChEMBL document CHEMBL4673328, “Three bufadienolides induce cell death in the human lung cancer cell line CL1-5 mainly through autophagy” (Bioorg Med Chem Lett, 2021).

“And” between values parts separate entries of the source, which are not always exact repeats. Equal entries are not always repeated. The source made the active and inactive calls. The calls are words filed in the database; no cut-off is given here.

A short description of experiment [1]: Induction of apoptosis in human CL1-5 cells assessed as viable cells at 100 nM incubated for 24 hrs by AnnexinV/FITC and propidium iodide staining based flow cytometry analysis (reference value: 94.8 %). The format is functional. The following applies: read-out: Activity. On the technique in general: Flow cytometry measures light scatter and fluorescence of single cells or particles in a stream.

Experiment [2] is described as follows: Induction of apoptosis in human CL1-5 cells assessed as early apoptotic cells at 100 nM incubated for 24 hrs by AnnexinV/FITC and propidium iodide staining based flow cytometry analysis (reference value: 2.65%). The format is functional.
Experiment [3] can be described thus: Induction of apoptosis in human CL1-5 cells assessed as necrotic cells at 100 nM incubated for 24 hrs by AnnexinV/FITC and propidium iodide staining based flow cytometry analysis (reference value: 0.285%). In kind it is functional.
Experiment [4] can be described thus: Induction of autophagy in human CL1-5 cells assessed as fold increase in Atg5 expression level at 100 nM incubated for 24 hrs by Western blot analysis relative to control. The format is functional. On the technique in general: In western blotting, separated proteins are transferred to a membrane and probed.
Experiment [5] in a line: Induction of autophagy in human CL1-5 cells assessed as fold decrease in p62 expression level at 100 nM incubated for 24 hrs by Western blot analysis relative to control. In kind it is functional.
Experiment [6] is described as follows: Induction of autophagy in human CL1-5 cells assessed as fold change in LC3-I expression level at 100 nM incubated for 24 hrs by Western blot analysis relative to control. The format is functional.
Experiment [7] is described as follows: Induction of autophagy in human CL1-5 cells assessed as fold decrease in phosphorylated mTOR expression level at 100 nM incubated for 24 hrs by Western blot analysis relative to control. The format is functional.
Experiment [8] is described as follows: Induction of cell cycle arrest in human CL1-5 cells assessed as G0/G1 phase at 100 nM incubated for 24 hrs by propidium iodide staining based flow cytometry analysis (reference value: 62.2%). The format is functional.
Experiment [9] in a line: Induction of autophagy in human CL1-5 cells assessed as fold increase in Beclin 1 expression level at 100 nM incubated for 24 hrs by Western blot analysis relative to control. In kind it is functional.
The nature of experiment [10]: Induction of autophagy in human CL1-5 cells assessed as proportion of cells with degradative autophagic compartment at 100 nM incubated for 24 hrs by acridine orange staining based flow cytometry analysis (reference value: 0.34%). In kind it is functional.
A short description of experiment [11]: Induction of autophagy in human CL1-5 cells assessed as fold increase in mTOR expression level at 100 nM incubated for 24 hrs by Western blot analysis relative to control. The format is functional.
Experiment [12] in a line: Induction of autophagy in human CL1-5 cells assessed as fold increase in Atg7 expression level at 100 nM incubated for 24 hrs by Western blot analysis relative to control. In kind it is functional.
Experiment [13] in a line: Induction of cell cycle arrest in human CL1-5 cells assessed as subG1 phase at 100 nM incubated for 24 hrs by propidium iodide staining based flow cytometry analysis (reference value: 2.28%). The format is functional.
The nature of experiment [14]: Induction of apoptosis in human CL1-5 cells assessed as late apoptotic cells at 100 nM incubated for 24 hrs by AnnexinV/FITC and propidium iodide staining based flow cytometry analysis (reference value: 2.30%). The format is functional.
Experiment [15] can be described thus: Induction of cell cycle arrest in human CL1-5 cells assessed as S phase at 100 nM incubated for 24 hrs by propidium iodide staining based flow cytometry analysis (reference value: 16.85%). In kind it is functional.
A short description of experiment [16]: Induction of autophagy in human CL1-5 cells assessed as fold increase in LC3-II expression level at 100 nM incubated for 24 hrs by Western blot analysis relative to control. In kind it is functional.
Experiment [17] in a line: Induction of cell cycle arrest in human CL1-5 cells assessed as G2/M phase at 100 nM incubated for 24 hrs by propidium iodide staining based flow cytometry analysis (reference value: 18.04%). In kind it is functional.
A short description of experiment [18]: Induction of autophagy in human CL1-5 cells assessed as fold change in p62 expression level at 100 nM incubated for 24 hrs in presence of early-stage autophagy inhibitor, 3-MA by Western blot analysis relative to control. The format is functional.
In experiment [19] the test system is CL1-5. Kind of experiment: Induction of autophagy in human CL1-5 cells assessed as LC3-GFP punta formation at 100 nM incubated for 24 hrs by confocal microscopic analysis. In kind it is functional, cell-based.
Experiment [20] is described as follows: Cytotoxicity against human CL1-5 cells assessed as reduction in cell viability incubated for 24 hrs by MTT assay. In kind it is functional, cell-based. The note with it: CL1-5, 24 h. In general terms: Tetrazolium dyes change colour on reduction, which living cells bring about.
Experiment [21] can be described thus: Induction of autophagy in human CL1-5 cells assessed as fold increase in Beclin 1 expression level at 50 nM incubated for 24 hrs by Western blot analysis relative to control. The format is functional.
Experiment [22] is described as follows: Induction of autophagy in human CL1-5 cells assessed as fold increase in LC3-II expression level at 50 nM incubated for 24 hrs by Western blot analysis relative to control. In kind it is functional.
Experiment [23] can be described thus: Induction of autophagy in human CL1-5 cells assessed as fold decrease in phosphorylated mTOR expression level at 50 nM incubated for 24 hrs by Western blot analysis relative to control. In kind it is functional.
A short description of experiment [24]: Induction of autophagy in human CL1-5 cells assessed as fold decrease in p62 expression level at 50 nM incubated for 24 hrs by Western blot analysis relative to control. The format is functional.
The nature of experiment [25]: Induction of autophagy in human CL1-5 cells assessed as fold increase in mTOR expression level at 50 nM incubated for 24 hrs by Western blot analysis relative to control. In kind it is functional.
In experiment [26] the test system is CL1-5. Kind of experiment: Induction of autophagy in human CL1-5 cells assessed as LC3-GFP punta formation at 50 nM incubated for 24 hrs by confocal microscopic analysis. The format is functional, cell-based.
A short description of experiment [27]: Induction of autophagy in human CL1-5 cells assessed as fold increase in Atg7 expression level at 50 nM incubated for 24 hrs by Western blot analysis relative to control. In kind it is functional.
Experiment [28] is described as follows: Induction of autophagy in human CL1-5 cells assessed as fold increase in Atg5 expression level at 50 nM incubated for 24 hrs by Western blot analysis relative to control. In kind it is functional.
Experiment [29] can be described thus: Induction of autophagy in human CL1-5 cells assessed as fold change in LC3-I expression level at 50 nM incubated for 24 hrs by Western blot analysis relative to control. In kind it is functional.

Turning to `CC(=O)O[C@H]1C(=O)[C@@]2(C)[C@H]([C@H](OC(=O)c3ccccc3)[C@]3(O)C[C@H](OC(=O)[C@H](O)[C@@H](NC(=O)c4ccccc4)c4ccccc4)C(C)=C1C3(C)C)[C@]1(OC(C)=O)CO[C@@H]1C[C@@H]2O` [PACLITAXEL], the viability at 0.1 µM in [1] is 72%. The Activity in experiment [2] came to 18.6%; in experiment [3], 2.31%.
Usually IC50 stands for the midpoint of a concentration-inhibition curve. For `CC(=O)O[C@H]1C[C@H](C)O[C@@H](O[C@H]2CC[C@]3(C=O)[C@H]4[C@H](O)C(=O)[C@]5(C)[C@@H](c6ccc(=O)oc6)CC[C@]5(O)[C@@H]4CC[C@]3(O)C2)[C@H]1O`, the “fold change (FC)” value in experiment [4] is listed as 1.51; in experiment [5], 0.42; in experiment [6] it was 0.69; in [7], 0.31; in experiment [9], 10.47; in experiment [11], 1.28. The “fold change (FC)” value is 1.18 in [12], 1.84 in [16] and 1.19 in experiment [18]. The Activity in [8] stood at 60.1%; in [10] it was 12.29%; in experiment [13] it was 1.81%; in [14] it was 4.93%; in [15], 13.21%; in [17], 23.65%. Further, the results for the Activity in [2] and in experiment [3] were 3.53% and 0.658%, respectively. Moreover, the viability at 0.1 µM in experiment [1] is 90.9%. Further, in the experiment with CL1-5 [19], the outcome was Active. Moreover, the IC50 in [20] was 0.0706 µg/mL and 114 nM.
Consider `C[C@@]12O[C@H]3C[C@@H](O1)[C@]1(C=O)[C@H]4[C@H](O)C(=O)[C@]5(C)[C@@H](c6ccc(=O)oc6)CC[C@]5(O)[C@@H]4CC[C@@]1(C3)O2`, for which the “fold change (FC)” value in experiment [4] is 2.01; in [5] it was 0.59; in [6], 1.03; in experiment [7], 0.58; in experiment [9], 3.2; in experiment [11], 1.23. For the same compound, the “fold change (FC)” value in experiment [12] is 1.18; in experiment [16], 2.36; in experiment [18] it was 1.02. For the same compound, the Activity is on record as 60.71% in experiment [8]; 11.35% in [10]; 2.25% in [13]; 5.88% in experiment [14]; 13.2% in experiment [15]; 23.26% in experiment [17]. Moreover, the Activity in experiment [2] is 4.19%; in experiment [3] it was 1.3%. In addition, the viability at 0.1 µM in experiment [1] came out at 88.6%. For the same compound, the outcome in the experiment with CL1-5 [19] was inactive. In addition, the concentration for half-maximal inhibition (IC50) in [20] was 0.0767 µg/mL and 162 nM.
With `CO[C@H]1C[C@@H]2CC[C@@H](C)[C@@](O)(O2)C(=O)C(=O)N2CCCC[C@H]2C(=O)O[C@H]([C@H](C)C[C@@H]2CC[C@@H](O)[C@H](OC)C2)CC(=O)[C@H](C)/C=C(\C)[C@@H](O)[C@@H](OC)C(=O)[C@H](C)C[C@H](C)/C=C/C=C/C=C/1C` [SIROLIMUS], the “fold change (FC)” value in experiment [21] was 16.57; in experiment [22], 1.3; in experiment [23] it was 0.26; in experiment [24], 0.79; in experiment [25] it was 1.14; in [27], 1.26. Further, the figures for the “fold change (FC)” value in [28] and in experiment [29] were 2.17 and 1.69, respectively. The result with CL1-5 [26] was Active.
As to `C[C@H]1C[C@H](O)[C@H](O)[C@H](O[C@H]2CC[C@]3(C=O)[C@H]4[C@H](O)C(=O)[C@]5(C)[C@@H](c6ccc(=O)oc6)CC[C@]5(O)[C@@H]4CC[C@]3(O)C2)O1`, the “fold change (FC)” value in experiment [4] is 2.77; in experiment [5] it was 0.4; in experiment [6], 0.93; in experiment [7], 0.08; in [9], 12.86; in [11], 1.1. Besides, the “fold change (FC)” value in experiment [12] is reported as 1.76; in experiment [16], 2.55; in experiment [18], 0.56. For the same compound, the Activity was determined as 43.83% in experiment [8]; 14.45% in experiment [10]; 2.14% in experiment [13]; 5.52% in experiment [14]; 24.94% in experiment [15]; 28.04% in [17]. Further, the Activity was 4.72% in experiment [2] and 0.91% in experiment [3]. Further, the viability at 0.1 µM in experiment [1] is 88.8%. For the same compound, the result in the experiment on CL1-5 [19] was Active. For the same compound, in experiment [20], the IC50 is 0.0523 µg/mL and 90.8 nM.
